Laboratory results reported in publication PMC6683083, “Lupin Peptide T9 (GQEQSHQDEGVIVR) Modulates the Mutant PCSK9^D374Y Pathway: in vitro Characterization of its Dual Hypocholesterolemic Behavior” (Nutrients, 2019).
“Also recorded” adds a separate entry of the source.

Tests used:
intestinal peptidases = conditions: ref [13]; cited from earlier work
From the text: (§1) GQEQSHQDEGVIVR (T9) is a peptide, deriving from the hydrolysis of β-conglutin with trypsin, showing a pI of 4.3, a hydrophobicity value of 25.97 Kcal mol^−1, and a net charge of −2 at pH 7.0. Its 14-aminoacids sequence comprises a polar negatively charged N-terminal, containing a glutamate residue, and a nonpolar positively charged C-terminal, containing an arginine residue. […] Two previous in silico studies have predicted the potential ...

[1] = tested on: human intestinal Caco-2 cells; conditions: human intestinal Caco-2 cells / enterocytes; ref [13]; cited from earlier work
From the text: as §1, with “A previous study has shown that T9 impairs the protein–protein interaction between mutant D374Y Proprotein Convertase Subtilisin/Kexin 9 (PCSK9^D374Y) and the low-density lipoprotein receptor (LDLR), thus exerting a hypocholesterolemic effect. […] The present ... || GQEQSHQDEGVIVR” for “GQEQSHQDEGVIVR”

HMGCoAR = target: T1, HMGCoAR (Homo sapiens, UniProt P04035); experiment: In vitro HMGCoAR activity assay (Sigma kit); assay type: biochemical; conditions: 10^−5 to 10^−3 M; 37 °C; NADPH oxidation, absorbance at 340 nm, 0 and 10 min; means ± SD
T1 construct: purchased Sigma (Sigma-Aldrich, St. Louis, MO, USA)
T1 sequence (P04035 426-888 limits assumed): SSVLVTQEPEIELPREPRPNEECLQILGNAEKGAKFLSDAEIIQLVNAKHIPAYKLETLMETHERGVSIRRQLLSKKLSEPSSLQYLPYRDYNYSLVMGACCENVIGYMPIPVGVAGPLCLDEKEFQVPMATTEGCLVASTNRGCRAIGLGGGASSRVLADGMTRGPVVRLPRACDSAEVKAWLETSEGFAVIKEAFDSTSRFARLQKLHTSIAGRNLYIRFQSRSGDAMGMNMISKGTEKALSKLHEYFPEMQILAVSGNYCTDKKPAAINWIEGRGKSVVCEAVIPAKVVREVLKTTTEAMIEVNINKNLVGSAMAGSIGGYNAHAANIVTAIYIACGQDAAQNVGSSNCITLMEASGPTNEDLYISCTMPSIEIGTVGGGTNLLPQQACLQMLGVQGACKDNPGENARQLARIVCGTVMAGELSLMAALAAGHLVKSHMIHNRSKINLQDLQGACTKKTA
Procedure: The assay buffer, NADPH, substrate solution, and HMGCoAR were provided in the HMGCoAR Assay Kit (Sigma). The experiments were carried out as previously described. See Supplementary Materials for further details.
In vitro experiments were performed in order to confirm the in silico study according to which T9 was a potential inhibitor of the HMGCoAR activity. Peptide concentrations ranging from 10^−5 to 10^−3 M were tested.
Brief description of material and methods
Dulbecco’s modified Eagle’s medium (DMEM), stable L-glutamine, fetal bovine serum (FBS), phosphate buffered saline (PBS), penicillin/streptomycin, chemiluminescent reagent, and 96-well plates were purchased from Euroclone (Milan, Italy). […]
The assay buffer, NADPH, substrate solution, and HMGCoAR were provided in the HMGCoAR Assay Kit (Sigma). […] The absorbance at time 0 and 10 min were recorded. The HMGCoAR-dependent oxidation of NADPH and the inhibition properties of lupin peptides were measured by the absorbance reduction at 340 nm read by a microplate reader […]
Transfected HepG2 cells (1.5 × 10^5 cells/well) were treated with 100 μM T9 for 24 h. […] After centrifugation at 16,060 g for 15 min at 4 °C, the supernatant was recovered and total proteins were quantified by the Bradford method. […]

Structure (SMILES): CC[C@H](C)[C@H](NC(=O)[C@@H](NC(=O)CNC(=O)[C@H](CCC(=O)O)NC(=O)[C@H](CC(=O)O)NC(=O)[C@H](CCC(N)=O)NC(=O)[C@H](Cc1cnc[nH]1)NC(=O)[C@H](CO)NC(=O)[C@H](CCC(N)=O)NC(=O)[C@H](CCC(=O)O)NC(=O)[C@H](CCC(N)=O)NC(=O)CN)C(C)C)C(=O)N[C@H](C(=O)N[C@@H](CCCNC(=N)N)C(=O)O)C(C)C [T9]
- stability to metabolic degradation operated by intestinal peptidases (in words) (intestinal peptidases): stable to the metabolic degradation operated by intestinal peptidases
- intestinal absorption (in words) [1]: absorbed in human intestinal Caco-2 cells; also recorded: absorbed by enterocytes
- IC50 (HMGCoAR): 99.5 ± 0.56 µM
